Test results from patent US11220482B2, “Aminopyridinemethanol compounds and their use” (UNIVERSITE AMIENS PICARDIE JULES VERNE, priority 2017, dated 2022).

Tests used:
P. falciparum 3D7 = experiment: P. falciparum growth inhibition assay, second round (SYBR Green I, ICEstimator); format: cell-based, Plasmodium falciparum; settings: Plasmodium falciparum, 3D7, 48 h
[1] = in vivo, cited from earlier work
CHO-K1 cells = experiment: In vitro micronucleus assay, short-term exposure; settings: short-term, with S9 mix, positive control 5 μg/mL
Experimental: All the assays were conducted in duplicate. The CHO-K1 cells, suspended in McCoy's 5A medium, were transferred into Labteck wells at a concentration of 100,000 cells/mL, and incubated for 24 hours at 37° C. in CO2 (5%).
When the test was performed without metabolic activation, the test substances were added into cell cultures at concentrations previously defined.
When the assay was performed in the presence of metabolic activation, S9 mix metabolizing mixture was added to cell cultures at a concentration of 10%. Then the test substances were added to the cell cultures at concentrations previously defined.
After 3 hours of incubation at 37° C. in CO2 (5%), the culture medium was removed, the cells were rinsed with phosphate buffered saline (PBS), and then returned to culture in McCoy's 5A medium containing […] of cytochalasin B. After a 21-hour incubation period at 37° C., cells were rinsed with phosphate buffered saline (PBS), fixed with methanol and stained with 10% Giemsa for 20 minutes.
The analysis of results was performed under a microscope at ×1000 magnification. The antiproliferative activity of test substances was estimated by counting the number of binucleated cells relative to the number of mononucleated cells on a total of 500 cells for each dose (250 cells counted per well). The proliferation index (Cytokinesis Blocked Proliferative Index CBPI) was calculated using the following formula:
The cytostasis index (CI %), i.e. the percentage of cell replication inhibition, was calculated using the following formula: CI %−100−{100×(CBPItest material−1)/(CBPIsolvent control−1)}
The rates of micronuclei were evaluated for the presence of independent nuclear core entities in 1000 binucleated cells per well, which corresponds to 2000 cells examined by test substance dose. Micronuclei were identified as small nuclei well differentiated from cell nucleus, stained in the same manner and having a diameter less than one third of that of the cell nucleus.
Micronuclei rates obtained for different doses of test substances were compared to the negative control by a χ2 test. The assay was considered positive if: • A dose-response relationship was obtained between the rate of micronuclei and the doses tested, • At least one of these doses induced a statistically significant increase (P<0.05) in the number of micronucleated cells as compared to the negative control.

In the case of `OC(c1cc(-c2ccc(C(F)(F)F)cc2)nc(C(F)(F)F)c1)C1CCCCN1` (racemic) [Enpiroline, reference compound], the IC50 (P. falciparum 3D7) is given as 21.6 ± 1.43 nM and the mean half-life [1] is given as 140 h.
In the case of `OC(c1cc(C(F)(F)F)nc2c(C(F)(F)F)cccc12)C1CCCCN1` (racemic) [Mefloquine, mefloquine], the “human t1/2” value [1] is listed as 2-4 weeks.
In the case of `C[C@@H]1CC[C@H]2[C@@H](C)C(=O)O[C@@H]3O[C@@]4(C)CC[C@@H]1[C@]32OO4` [Artemisinin], the “human t1/2” value [1] is given as 1 h.
For `c1ccc2c(c1)cc1ccc3cccc4ccc2c1c34` [Benzo-a-pyrene, benzo-a-pyrene, reference compound], the “BI (binucleated cells)” value (CHO-K1 cells) was 475, the “MNC1 (micronucleated cell rate)” value (CHO-K1 cells) was 28 ‰ and the “MNC2 (micronucleated cell rate)” value (CHO-K1 cells) was 25 ‰. For the same molecule, the “MNC-M (mean of micronucleated cell rates)” value (CHO-K1 cells) was 26.5 ± 2.12 ‰ and the “MONO (mononucleated cells)” value (CHO-K1 cells) was 25.
